Reference: publication PMC5867622, “Microginins from a Microcystis sp. Bloom Material Collected from the Kishon Reservoir, Israel” (Marine Drugs, 2018)
Read-outs that look alike come from different tables or passages of the source. Square brackets hold non-standard residues; d marks the D form. Peptide text beside a SMILES is read from it. * marks the point of attachment. X15 = N[C@@H](CCCCCCC(Cl)Cl)[C@H](O)C(=O)*; X1 = N[C@H](CCCCCCC(Cl)Cl)[C@@H](O)C(=O)*; X14 = CCCCCCC[C@@H](N)[C@@H](O)C(=O)*; X6 = N[C@@H](CCCCCCCCl)[C@H](O)C(=O)*; X7 = N[C@H](CCCCCCCCl)[C@@H](O)C(=O)*; X10 = CCCCCCC[C@@H](N)[C@H](O)C(=O)*; NMeY = CN[C@@H](Cc1ccc(O)cc1)C(=O)O; X3 = CCCCCCC[C@H](NC)[C@H](O)C(=O)*; dNMeY = CN[C@H](Cc1ccc(O)cc1)C(=O)O; hTyr = N[C@@H](CCc1ccc(O)cc1)C(=O)O; X12 = N[C@H](CCCCCCC(Cl)Cl)CC(=O)*; X9 = CCCCCCC[C@H](N)[C@H](O)C(=O)*; NMeL = CN[CH](CC(C)C)C(=O)O; X2 = N[C@H](CCCCCCCCl)CC(=O)*; X5 = NC(CCCCCCCCl)C(O)C(=O)*; NMeV = CN[C@H](C(=O)O)C(C)C; X8 = CCCCCCCC(N)C(O)C(=O)*

Tests used:
APM = conditions: cited from earlier work; for IC50: Table S1; for Activity: APM (ni): Table S1, 'APM, ACE-ni'
ACE = conditions: cited from earlier work
[1] = target: T1, porcine kidney microsomal aminopeptidase M (Sus scrofa, UniProt P15145); test: Aminopeptidase M inhibitory assay; type: biochemical
T1 construct: purchased Sigma-Aldrich (St. Louis, MO, USA); host or cells: porcine kidney microsomes
T1 sequence (P15145 1-963): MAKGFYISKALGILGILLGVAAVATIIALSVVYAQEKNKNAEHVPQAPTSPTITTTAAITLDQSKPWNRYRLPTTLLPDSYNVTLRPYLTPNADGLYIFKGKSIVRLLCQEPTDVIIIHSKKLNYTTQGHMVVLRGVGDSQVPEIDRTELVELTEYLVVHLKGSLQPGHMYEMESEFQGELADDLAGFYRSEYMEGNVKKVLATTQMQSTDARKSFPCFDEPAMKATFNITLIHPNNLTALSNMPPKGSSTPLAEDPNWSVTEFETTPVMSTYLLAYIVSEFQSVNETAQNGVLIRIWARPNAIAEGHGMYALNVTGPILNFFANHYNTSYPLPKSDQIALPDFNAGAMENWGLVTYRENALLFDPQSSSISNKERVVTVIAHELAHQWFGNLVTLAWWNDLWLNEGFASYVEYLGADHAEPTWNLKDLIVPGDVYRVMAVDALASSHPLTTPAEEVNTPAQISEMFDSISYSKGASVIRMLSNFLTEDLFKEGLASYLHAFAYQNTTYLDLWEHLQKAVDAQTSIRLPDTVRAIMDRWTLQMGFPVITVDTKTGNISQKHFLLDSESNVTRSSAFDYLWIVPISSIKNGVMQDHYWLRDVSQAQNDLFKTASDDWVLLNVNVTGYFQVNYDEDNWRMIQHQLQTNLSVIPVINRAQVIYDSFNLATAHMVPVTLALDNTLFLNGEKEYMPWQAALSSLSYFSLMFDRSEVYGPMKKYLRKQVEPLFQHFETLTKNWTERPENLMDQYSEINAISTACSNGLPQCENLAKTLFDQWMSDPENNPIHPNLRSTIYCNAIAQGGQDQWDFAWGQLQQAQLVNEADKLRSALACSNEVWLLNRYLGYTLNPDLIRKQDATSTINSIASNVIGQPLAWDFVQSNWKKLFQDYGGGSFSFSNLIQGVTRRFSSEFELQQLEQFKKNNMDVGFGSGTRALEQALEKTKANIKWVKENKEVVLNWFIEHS
Method: Aminopeptidase M inhibitory activity was determined according to the procedure described by Ishida et al.. A reaction mixture composed of 20 μL of L-leucine-p-nitroanilide (2 mM in 0.1 M Tris-HCl buffer at pH 7.0), 50 μL of 0.1 M Tris-HCl buffer (pH 7.0) and 20 μL of test solution was added to each well of a 96-well microtiter plate. The plate was incubated at 37 °C for 5 min; thereafter, 10 μL of porcine kidney microsomal aminopeptidase M [EC Number 232-942-5, Sigma-Aldrich (St. Louis, MO, USA), […] in 3.5 M (NH4)2SO4] was added to each well, and the absorbance at 405 nm was measured for 30 min. The microginin samples were dissolved in DMSO at a concentration of 1 mg/mL, and the IC50 values were determined by analysis of a series of dilutions (from 45.5 μM to 0.00069 μM). A sigmoidal curve of the enzyme inhibition versus the concentration of the inhibitor was observed that was fit to a 4-parameter logistic model.

[2] = ref 9 (Sano et al., Phytochem. 2005), read-out: Activity: APM
[3] = Table S1, ref 9 (Sano et al., Phytochem. 2005)
[4] = ref 6 (Ishida et al., Tetrahedron 2000), read-out: Activity: APM
[5] = Table S1, ref 6 (Ishida et al., Tetrahedron 2000)
[6] = ref 6 (Ishida et al., Tetrahedron 2000)
[7] = ref 4 (Ishida et al., Tetrahedron 1998)
[8] = Table S1, ref 4 (Ishida et al., Tetrahedron 1998)
[9] = ref 2 (Ishida et al., Tetrahedron 1997), read-out: Activity: APM
[10] = Table S1, ref 2 (Ishida et al., Tetrahedron 1997)
[11] = ref 4 (Ishida et al., Tetrahedron 1998), read-out: Activity: APM
[12] = ref 5 (Kodani et al., FEMS Microbiol. Lett. 1999), read-out: Activity: AMP
[13] = Table S1, ref 5 (Kodani et al., FEMS Microbiol. Lett. 1999)

## CCCCCCC[C@@H](N)[C@H](O)C(=O)N[C@@H](C)C(=O)N[C@H](C(=O)N(C)[C@@H](Cc1ccc(O)cc1)C(=O)N[C@@H](CCc1ccc(O)cc1)C(=O)O)C(C)C [Cyanostatin A] (X10-AV[NMeY][hTyr]-OH)
APM; [2]
  IC50: 55 µM
ACE; [3]
  IC50: 150 µM

## CCCCCCCC(N)C(O)C(=O)NC(Cc1ccc(O)cc1)C(=O)N(C)C(CC(C)C)C(=O)N1CCCC1C(=O)NC(Cc1ccc(O)cc1)C(=O)O (centres unmarked) [Cyanostatin B] (X8-Y[NMeL]PY-OH; configuration not given here)
APM; [2]
  IC50: 16 µM
ACE; [3]
  IC50: 170 µM

## CCCCCCC[C@H](N)[C@H](O)C(=O)N[C@@H](Cc1ccc(O)cc1)C(=O)N(C)[C@H](C(=O)N(C)[C@@H](Cc1ccc(O)cc1)C(=O)N1CCC[C@@H]1C(=O)N[C@@H](Cc1ccc(O)cc1)C(=O)O)C(C)C [Microginin 51-A] (X9-Y[NMeV][NMeY][dP]Y-OH)
APM; [4]
  IC50: 4.9 µM
ACE; [5]
  Activity: ACE (ni): ni

## CCCCCCC[C@H](NC)[C@H](O)C(=O)N[C@@H](Cc1ccc(O)cc1)C(=O)N(C)[C@H](C(=O)N(C)[C@@H](Cc1ccc(O)cc1)C(=O)N1CCC[C@@H]1C(=O)N[C@@H](Cc1ccc(O)cc1)C(=O)O)C(C)C [Microginin 51-B] (X3-Y[NMeV][NMeY][dP]Y-OH)
APM; [6]
  Activity: APM (ni): ni
ACE; [5]
  Activity: ACE (ni): ni

## CCC(C)C(NC(=O)C(O)C(N)CCCCCCCCl)C(=O)N(C)C(CC(C)C)C(=O)N1CCCC1C(=O)O (centres unmarked) [Microginin 91-B]
APM; [6]
  Activity: APM (ni): ni
ACE; [5]
  Activity: ACE (ni): ni

## CCCCCCC[C@@H](N)[C@@H](O)C(=O)N[C@H](C(=O)N(C)[C@@H](CC(C)C)C(=O)N1CCC[C@H]1C(=O)N[C@@H](Cc1ccc(O)cc1)C(=O)O)[C@@H](C)CC [Microginin 91-C] (X14-I[NMeL]PY-OH)
APM; [4]
  IC50: 71.1 µM
ACE; [5]
  Activity: ACE (ni): ni

## CC[C@H](C)[C@H](NC(=O)[C@H](O)[C@H](N)CCCCCCCCl)C(=O)N(C)[C@@H](CC(C)C)C(=O)N1CCC[C@H]1C(=O)N[C@@H](Cc1ccc(O)cc1)C(=O)O [Microginin 91-D] (X7-I[NMeL]PY-OH)
APM; [4]
  IC50: 43.4 µM
ACE; [5]
  Activity: ACE (ni): ni

## CC[C@H](C)[C@H](NC(=O)[C@H](O)[C@H](N)CCCCCCC(Cl)Cl)C(=O)N(C)[C@@H](CC(C)C)C(=O)N1CCC[C@H]1C(=O)N[C@@H](Cc1ccc(O)cc1)C(=O)O [Microginin 91-E] (X1-I[NMeL]PY-OH)
APM; [4]
  IC50: 19.5 µM
ACE; [5]
  Activity: ACE (ni): ni

## CC(C)C[C@H](NC(=O)[C@H](Cc1ccc(O)cc1)NC(=O)C[C@H](N)CCCCCCCCl)C(=O)N(C)[C@@H](Cc1ccc(O)cc1)C(=O)N1CCC[C@H]1C(=O)O [Microginin 99-A] (X2-YL[NMeY]P-OH)
APM; [7]
  Activity: APM (ni): ni
ACE; [8]
  Activity: ACE (ni): ni

## CC(C)C[C@H](NC(=O)[C@H](Cc1ccc(O)cc1)NC(=O)C[C@H](N)CCCCCCC(Cl)Cl)C(=O)N(C)[C@@H](Cc1ccc(O)cc1)C(=O)N1CCC[C@H]1C(=O)O [Microginin 99-B] (X12-YL[NMeY]P-OH)
APM; [7]
  Activity: APM (ni): ni
ACE; [8]
  Activity: ACE (ni): ni

## CC(C)[C@H](NC(=O)[C@@H](O)[C@@H](N)CCCCCCCCl)C(=O)N(C)[C@H](C(=O)N(C)[C@@H](Cc1ccc(O)cc1)C(=O)N1CCC[C@H]1C(=O)N[C@@H](Cc1ccc(O)cc1)C(=O)O)C(C)C [Microginin 299-A] (X6-V[NMeV][NMeY]PY-OH)
APM; [9]
  IC50: 5.2 µM
ACE; [10]
  Activity: ACE (ni): ni

## CC(C)[C@H](NC(=O)[C@@H](O)[C@@H](N)CCCCCCC(Cl)Cl)C(=O)N(C)[C@H](C(=O)N(C)[C@@H](Cc1ccc(O)cc1)C(=O)N1CCC[C@H]1C(=O)N[C@@H](Cc1ccc(O)cc1)C(=O)O)C(C)C [Microginin 299-B] (X15-V[NMeV][NMeY]PY-OH)
APM; [9]
  IC50: 7.1 µM
ACE; [10]
  Activity: ACE (ni): ni

## CCCCCCC[C@H](N)[C@H](O)C(=O)N[C@H](C(=O)N(C)[C@H](C(=O)N(C)[C@@H](Cc1ccc(O)cc1)C(=O)N1CCC[C@H]1C(=O)N[C@@H](Cc1ccc(O)cc1)C(=O)O)C(C)C)C(C)C [Microginin 299-C] (X9-V[NMeV][NMeY]PY-OH)
APM; [11]
  IC50: 2.3 µM
ACE; [8]
  Activity: ACE (ni): ni

## CC(C)[C@H](NC(=O)[C@H](O)[C@H](N)CCCCCCC(Cl)Cl)C(=O)N(C)[C@H](C(=O)N(C)[C@H](Cc1ccc(O)cc1)C(=O)N1CCC[C@@H]1C(=O)O)C(C)C [Microginin 299-D] (X1-V[NMeV][dNMeY][dP]-OH)
APM; [11]
  IC50: 8.5 µM
ACE; [8]
  Activity: ACE (ni): ni

## CCCCCCC[C@H](NC)[C@H](O)C(=O)N[C@H](C(=O)N(C)[C@H](C(=O)N(C)[C@@H](Cc1ccc(O)cc1)C(=O)N[C@@H](Cc1ccc(O)cc1)C(=O)O)C(C)C)C(C)C [Microginin 478] (X3-V[NMeV][NMeY]Y-OH)
APM; [4]
  IC50: 132 µM
ACE; [5]
  IC50: 13.2 µM

## CCCCCCC[C@H](N)[C@H](O)C(=O)N(C)[C@@H](CCSC)C(=O)N[C@@H](Cc1ccc(O)cc1)C(=O)N[C@@H](Cc1ccc(O)cc1)C(=O)O [Microginin 674]
ACE; Table S1, ref 15 (Product of LKT Laboratories, Inc.)
  Activity: ACE inhibitor

## CCCCCCC[C@H](N)[C@H](O)C(=O)N(C)[C@@H](CC[S+](C)[O-])C(=O)N[C@@H](Cc1ccc(O)cc1)C(=O)N[C@@H](Cc1ccc(O)cc1)C(=O)O (some centres unmarked) [Microginin 690]
ACE; Table S1, ref 16 (Product of Santa Cruz Biotechnology)
  Activity: ACE inhibitor

## CCCCCCCC(N)C(O)C(=O)NC(C(=O)N1CCCC1C(=O)NC(Cc1ccc(O)cc1)C(=O)NC(Cc1ccc(O)cc1)C(=O)O)C(C)O (centres unmarked) [Microginin FR3] (X8-TPYY-OH; configuration not given here)
[1]; Activity: APM, Table S1, source 14 = this manuscript
  IC50: 0.0062 µM
[1]; IC50 in μM ± SD, Table 4, substrate L-leucine-p-nitroanilide, Tris-HCl pH 7.0, 37 °C
  IC50: 6.2 ± 0.03 µM

## C[C@H](NC(=O)C(O)C(N)CCCCCCCCl)C(=O)N1CCC[C@H]1C(=O)N[C@@H](Cc1ccc(O)cc1)C(=O)N[C@@H](Cc1ccc(O)cc1)C(=O)O (some centres unmarked) [Microginin T1] (X5-APYY-OH)
APM; [12]
  IC50: 2.7 µM
ACE; [13]
  IC50: 6.8 µM

## CCCCCCCC(N)C(O)C(=O)N[C@@H](C)C(=O)N1CCC[C@H]1C(=O)N[C@@H](Cc1ccc(O)cc1)C(=O)N[C@@H](Cc1ccc(O)cc1)C(=O)O (some centres unmarked) [Microginin T2] (X8-APYY-OH)
APM; [12]
  IC50: 2.9 µM
ACE; [13]
  IC50: 10 µM

## CCCCCCCC(N)C(O)C(=O)N[C@@H](C)C(=O)N[C@H](C(=O)N(C)[C@@H](Cc1ccc(O)cc1)C(=O)N[C@@H](Cc1ccc(O)cc1)C(=O)O)C(C)C (some centres unmarked) [Microginin] (X8-AV[NMeY]Y-OH)
ACE; Table S1, activity named without value, ref 1 (Okino et al., Tetrahedron Lett. 1993)
  Activity: ACE

## Microginin 91-A
APM; [6]
  Activity: APM (ni): ni
ACE; [5]
  Activity: ACE (ni): ni
